One experiment relates to human sperm. In words: acrosome reaction in capacitated human sperm (acrosome specific monoclonal antibody, FITC fluorescence). The following applies: bombesin at a concentration as low as 5 nM, added after overnight capacitation, FIG. 5. The experiment is classed as cell-based. The procedure:
(§1) To measure the effects of bombesin on the acrosome reaction, capacitation was conducted in the presence or absence of bombesin. After incubation, samples of sperm were removed to determine the percentage of sperm which had undergone the acrosome reaction as measured with an acrosome specific monoclonal antibody and FITC fluorescence [see Wolf, D. P. Am. J. Reprod. Immunol. 20:106-113 (1989), which is hereby incorporated by reference].
For human sperm, capacitation was achieved by overnight incubation of sperm in balanced salt and 0.3% bovine serum albumin, after which bombesin was added to induce the acrosome reaction.

In another experiment the test system is monkey sperm. As to the kind of experiment: acrosome reaction in capacitated monkey sperm (acrosome specific monoclonal antibody, FITC fluorescence). The experiment is classed as cell-based. As to conditions: bombesin at a concentration as low as 5 nM, present during 60 minutes capacitation, FIG. 5. As to the method:
For monkeys, sperm was collected, washed twice in balanced salts, resuspended in lactate/bicarbonate and dibutyryl cAMP, and then incubated for 60 minutes. […] See Wolf, D. P. et al. Mol. Reprod. Dev. 27:261-280 (1990); Lanzendorf, S. E. et al. Mol. Reprod. Dev. 25:61-66 (1990); and Wolf D. P. et al. Biol. Reprod. 41:335-346 (1989). All of these three publications are hereby incorporated by reference.
as §1

`CSCC[C@H](NC(=O)[C@H](CC(C)C)NC(=O)[C@H](Cc1cnc[nH]1)NC(=O)CNC(=O)[C@@H](NC(=O)[C@H](C)NC(=O)[C@H](Cc1c[nH]c2ccccc12)NC(=O)[C@H](CCC(N)=O)NC(=O)[C@H](CC(N)=O)NC(=O)CNC(=O)[C@H](CC(C)C)NC(=O)[C@H](CCCN=C(N)N)NC(=O)[C@H](CCC(N)=O)NC(=O)[C@@H]1CCC(=O)N1)C(C)C)C(N)=O` [bombesin]: the “increase in the acrosome reaction” value with human sperm and in the experiment with monkey sperm was 2 fold throughout.
